# Data: patent publication US7217698B2, “Use of mannosamine derivatives for the stimulation of neurite growth” (Dompatent von Kreisler Selting Werner, priority 2001, dated 2007)
# Test system: PC12 cells
# Test: Neurite growth of NGF-stimulated PC12 cells with added ManNProp
# Assay type: cell-based
# Conditions: two days, control NGF only
# Description: It is known that stimulation with nerve growth factor (NGF) causes neuronal differentiation in PC12 cells. At an NGF concentration of 250 ng/ml and after three days of incubation, the PC12 cells already form a network of neurites. In order to examine whether the addition of ManNProp has an influence on the neurite formation by PC12 cells, the suitable neurite lengths for different incubation times were first titrated with different NGF concentrations. At an NGF concentration of 100 ng and an incubation time of two days, the cells formed neurites whose length were double the diameter of their cell. Under such conditions, the further course of the experiments was set up. The cells were plated with a constant number of cells on culture chambers which consisted of four chambers and were coated with collagen I (col.), poly-D-lysine (PDL) or laminin, and incubated under three different sets of conditions. Each variation was represented in duplicate. In the first chamber, the PC12 cells were incubated with 5 mM ManNProp, and in the second chamber, they were incubated with 100 ng of NGF. […] The first and second chambers served as a reference control for the cells under the influence of NGF and ManNProp. For each experiment, three culture chambers were sown in duplicate. After two days of incubation, the cells were fixed with paraformaldehyde, stained with crystal violet and washed with water. For evaluation, various segments were photographed and measured according to a random choice principle. For the evaluation, only the cells stimulated with NGF which served as a control and the cells stimulated with NGF plus ManNProp were considered. Each bar represents three experiments performed on three different days. The relative neurite length was established by CAPA (computer-assisted process analysis), and the data were integrated by means of Delta Graph. All experiments shown here were independently performed on different days. The values from Table 1 were additionally represented graphically in FIG. 3.
smiles,measurement,setting,value
"CCC(=O)N[C@@H]1C(O)O[C@H](CO)[C@@H](O)[C@@H]1O (stereo partly drawn) [ManNProp, N-propanoylmannosamine]",Enhancement of neurite growth in percent relative to the control,"Col. (collagen I) coating, 0.5 mM ManNProp + 100 ng NGF",3%
same,Enhancement of neurite growth in percent relative to the control,"Col. (collagen I) coating, 5 mM ManNProp + 100 ng NGF",11%
same,Enhancement of neurite growth in percent relative to the control,"Col. (collagen I) coating, 25 mM ManNProp + 100 ng NGF",20%
same,Enhancement of neurite growth in percent relative to the control,"Laminin coating, 0.5 mM ManNProp + 100 ng NGF",28%
same,Enhancement of neurite growth in percent relative to the control,"Laminin coating, 5 mM ManNProp + 100 ng NGF",70%
same,Enhancement of neurite growth in percent relative to the control,"Laminin coating, 25 mM ManNProp + 100 ng NGF",59%
same,Enhancement of neurite growth in percent relative to the control,"PDL (poly-D-lysine) coating, 0.5 mM ManNProp + 100 ng NGF",4%
same,Enhancement of neurite growth in percent relative to the control,"PDL (poly-D-lysine) coating, 5 mM ManNProp + 100 ng NGF",5%
same,Enhancement of neurite growth in percent relative to the control,"PDL (poly-D-lysine) coating, 25 mM ManNProp + 100 ng NGF",17%
